Measured values as given in PMC11882969 (Nature Communications, 2025).
“And” between values parts separate entries of the source, which are not always exact repeats. Identical values can stand only once.

Columns and labels:
Assay type in all cases: cell-based
[1] = target: panel of 320 non-olfactory GPCRs (Homo sapiens, UniProt P60893)
[2] = target: panel of 320 non-olfactory GPCRs (Homo sapiens, UniProt P22888)
[3] = target: panel of 320 non-olfactory GPCRs (Homo sapiens, UniProt P32238)
[4] = target: panel of 320 non-olfactory GPCRs (Homo sapiens, UniProt P25100)
[5] = target: panel of 320 non-olfactory GPCRs (Homo sapiens, UniProt Q99500)
Chain of panel of 320 non-olfactory GPCRs (Homo sapiens, UniProt Q99500) (Q99500 whole entry): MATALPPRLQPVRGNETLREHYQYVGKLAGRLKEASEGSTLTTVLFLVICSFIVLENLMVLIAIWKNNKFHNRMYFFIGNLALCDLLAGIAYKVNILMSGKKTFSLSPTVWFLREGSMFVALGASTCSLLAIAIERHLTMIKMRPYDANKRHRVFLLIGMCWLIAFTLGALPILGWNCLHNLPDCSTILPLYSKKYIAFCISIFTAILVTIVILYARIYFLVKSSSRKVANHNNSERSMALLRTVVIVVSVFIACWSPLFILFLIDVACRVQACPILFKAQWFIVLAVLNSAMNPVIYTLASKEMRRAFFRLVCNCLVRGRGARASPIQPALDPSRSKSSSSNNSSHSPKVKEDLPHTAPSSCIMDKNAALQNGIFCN

[6] = target: panel of 320 non-olfactory GPCRs (Homo sapiens, UniProt Q9H244)
[7] = target: panel of 320 non-olfactory GPCRs (Homo sapiens, UniProt P49682)
[8] = target: panel of 320 non-olfactory GPCRs (Homo sapiens, UniProt Q8IZF7)
Chain of panel of 320 non-olfactory GPCRs (Homo sapiens, UniProt Q8IZF7) (Q8IZF7 whole entry): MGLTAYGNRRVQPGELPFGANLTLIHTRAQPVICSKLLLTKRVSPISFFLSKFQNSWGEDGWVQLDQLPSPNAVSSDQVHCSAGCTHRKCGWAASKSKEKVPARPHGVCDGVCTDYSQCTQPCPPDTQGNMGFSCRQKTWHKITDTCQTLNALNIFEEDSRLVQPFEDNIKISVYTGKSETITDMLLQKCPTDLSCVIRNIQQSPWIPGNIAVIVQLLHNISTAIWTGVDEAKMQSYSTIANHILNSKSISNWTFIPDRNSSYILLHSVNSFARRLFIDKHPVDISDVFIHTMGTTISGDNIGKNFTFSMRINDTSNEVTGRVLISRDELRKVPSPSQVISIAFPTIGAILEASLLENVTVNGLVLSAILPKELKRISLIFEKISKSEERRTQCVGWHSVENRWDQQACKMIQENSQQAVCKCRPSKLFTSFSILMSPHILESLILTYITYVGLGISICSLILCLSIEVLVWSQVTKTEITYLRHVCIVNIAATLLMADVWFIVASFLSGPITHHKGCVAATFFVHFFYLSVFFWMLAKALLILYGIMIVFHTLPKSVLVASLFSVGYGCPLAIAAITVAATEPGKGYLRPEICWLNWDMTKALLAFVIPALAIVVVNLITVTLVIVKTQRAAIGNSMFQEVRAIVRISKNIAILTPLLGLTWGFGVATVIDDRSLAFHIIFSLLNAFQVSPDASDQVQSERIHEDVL

[9] = target: panel of 320 non-olfactory GPCRs (Homo sapiens, UniProt Q8TDV0)
[10] = target: panel of 320 non-olfactory GPCRs (Homo sapiens, UniProt P32247)
[11] = target: panel of 320 non-olfactory GPCRs (Homo sapiens, UniProt Q8WXD0)
[12] = target: panel of 320 non-olfactory GPCRs (Homo sapiens, UniProt Q9H1C0)
Chain of panel of 320 non-olfactory GPCRs (Homo sapiens, UniProt Q9H1C0) (Q9H1C0 whole entry): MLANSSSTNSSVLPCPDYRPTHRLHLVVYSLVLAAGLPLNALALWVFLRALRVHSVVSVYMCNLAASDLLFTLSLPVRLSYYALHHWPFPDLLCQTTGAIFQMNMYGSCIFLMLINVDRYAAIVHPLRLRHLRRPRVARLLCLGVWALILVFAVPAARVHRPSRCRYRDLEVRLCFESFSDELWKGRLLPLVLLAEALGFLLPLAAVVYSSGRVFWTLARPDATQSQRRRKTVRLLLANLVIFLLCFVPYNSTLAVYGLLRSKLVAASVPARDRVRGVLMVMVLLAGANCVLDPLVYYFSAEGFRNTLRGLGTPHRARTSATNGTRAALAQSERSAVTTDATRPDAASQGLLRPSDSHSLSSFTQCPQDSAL

[13] = target: panel of 320 non-olfactory GPCRs (Homo sapiens, UniProt Q14330)
[14] = target: panel of 320 non-olfactory GPCRs (Homo sapiens, UniProt Q9H228)
Chain of panel of 320 non-olfactory GPCRs (Homo sapiens, UniProt Q9H228) (Q9H228 whole entry): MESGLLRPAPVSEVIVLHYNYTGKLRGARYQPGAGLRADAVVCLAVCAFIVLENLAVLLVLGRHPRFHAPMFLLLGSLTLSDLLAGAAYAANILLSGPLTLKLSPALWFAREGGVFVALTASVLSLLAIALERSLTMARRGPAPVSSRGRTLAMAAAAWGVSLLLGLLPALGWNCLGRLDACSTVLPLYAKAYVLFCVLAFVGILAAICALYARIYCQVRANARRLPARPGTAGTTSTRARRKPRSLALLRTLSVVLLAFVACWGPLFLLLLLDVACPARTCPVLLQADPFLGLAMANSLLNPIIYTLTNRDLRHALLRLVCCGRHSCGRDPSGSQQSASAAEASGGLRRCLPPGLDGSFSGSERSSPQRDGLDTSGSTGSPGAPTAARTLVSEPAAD

[15] = target: panel of 320 non-olfactory GPCRs (Homo sapiens, UniProt P08588)
[16] = target: panel of 320 non-olfactory GPCRs (Homo sapiens, UniProt Q96RJ0)
Chain of panel of 320 non-olfactory GPCRs (Homo sapiens, UniProt Q96RJ0) (Q96RJ0 whole entry): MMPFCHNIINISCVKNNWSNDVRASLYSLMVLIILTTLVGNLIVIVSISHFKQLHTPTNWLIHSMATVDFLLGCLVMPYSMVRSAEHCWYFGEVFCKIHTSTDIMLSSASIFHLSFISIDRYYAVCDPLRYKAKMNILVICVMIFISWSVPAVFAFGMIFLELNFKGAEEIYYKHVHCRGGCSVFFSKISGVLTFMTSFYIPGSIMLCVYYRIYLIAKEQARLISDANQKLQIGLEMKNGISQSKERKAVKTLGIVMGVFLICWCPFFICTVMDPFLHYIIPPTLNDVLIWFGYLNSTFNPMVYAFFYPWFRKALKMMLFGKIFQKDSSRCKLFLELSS

[17] = target: panel of 320 non-olfactory GPCRs (Homo sapiens, UniProt P43115)
Chain of panel of 320 non-olfactory GPCRs (Homo sapiens, UniProt P43115) (P43115 whole entry): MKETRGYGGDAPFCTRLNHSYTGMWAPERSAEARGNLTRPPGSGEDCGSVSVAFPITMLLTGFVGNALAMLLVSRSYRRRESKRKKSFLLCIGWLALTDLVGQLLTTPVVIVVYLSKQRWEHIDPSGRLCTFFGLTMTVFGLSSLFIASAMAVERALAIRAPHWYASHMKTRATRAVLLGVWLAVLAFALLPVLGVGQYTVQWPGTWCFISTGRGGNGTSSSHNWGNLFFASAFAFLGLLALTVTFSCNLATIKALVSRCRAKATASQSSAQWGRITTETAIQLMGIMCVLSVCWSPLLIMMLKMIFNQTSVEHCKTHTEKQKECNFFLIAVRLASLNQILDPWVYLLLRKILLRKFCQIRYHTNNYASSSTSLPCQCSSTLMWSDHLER

[18] = target: panel of 320 non-olfactory GPCRs (Homo sapiens, UniProt Q8TDV5)
[19] = target: panel of 320 non-olfactory GPCRs (Homo sapiens, UniProt P32248)
Chain of panel of 320 non-olfactory GPCRs (Homo sapiens, UniProt P32248) (P32248 25-378): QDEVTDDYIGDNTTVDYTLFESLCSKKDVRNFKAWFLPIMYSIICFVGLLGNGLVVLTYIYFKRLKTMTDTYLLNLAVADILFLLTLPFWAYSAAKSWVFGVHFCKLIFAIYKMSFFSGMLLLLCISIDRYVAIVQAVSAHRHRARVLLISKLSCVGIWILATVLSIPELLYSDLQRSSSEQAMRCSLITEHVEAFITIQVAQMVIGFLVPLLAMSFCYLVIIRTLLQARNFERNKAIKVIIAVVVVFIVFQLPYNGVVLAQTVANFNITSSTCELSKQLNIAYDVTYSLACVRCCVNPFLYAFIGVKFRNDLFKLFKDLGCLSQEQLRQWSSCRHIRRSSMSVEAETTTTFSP

[20] = target: panel of 320 non-olfactory GPCRs (Homo sapiens, UniProt O60883)
[21] = target: panel of 320 non-olfactory GPCRs (Homo sapiens, UniProt P49286)
[22] = target: panel of 320 non-olfactory GPCRs (Homo sapiens, UniProt Q9BZJ7)
[23] = target: panel of 320 non-olfactory GPCRs (Homo sapiens, UniProt Q9Y5N1)
[24] = target: panel of 320 non-olfactory GPCRs (Homo sapiens, UniProt Q96LA9)
Chain of panel of 320 non-olfactory GPCRs (Homo sapiens, UniProt Q96LA9) (Q96LA9 whole entry): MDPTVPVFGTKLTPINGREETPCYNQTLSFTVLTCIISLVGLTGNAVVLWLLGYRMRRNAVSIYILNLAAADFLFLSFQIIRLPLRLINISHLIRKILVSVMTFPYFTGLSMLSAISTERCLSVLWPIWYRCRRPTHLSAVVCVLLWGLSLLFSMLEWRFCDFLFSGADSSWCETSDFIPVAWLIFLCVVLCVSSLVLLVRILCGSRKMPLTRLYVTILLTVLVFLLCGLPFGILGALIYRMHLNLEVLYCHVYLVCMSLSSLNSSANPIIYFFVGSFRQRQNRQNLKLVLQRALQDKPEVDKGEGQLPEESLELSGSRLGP

[25] = target: panel of 320 non-olfactory GPCRs (Homo sapiens, UniProt Q8IWK6)
[26] = target: panel of 320 non-olfactory GPCRs (Homo sapiens, UniProt O95977)
[27] = target: panel of 320 non-olfactory GPCRs (Homo sapiens, UniProt P25024)
Chain of panel of 320 non-olfactory GPCRs (Homo sapiens, UniProt P25024) (P25024 whole entry): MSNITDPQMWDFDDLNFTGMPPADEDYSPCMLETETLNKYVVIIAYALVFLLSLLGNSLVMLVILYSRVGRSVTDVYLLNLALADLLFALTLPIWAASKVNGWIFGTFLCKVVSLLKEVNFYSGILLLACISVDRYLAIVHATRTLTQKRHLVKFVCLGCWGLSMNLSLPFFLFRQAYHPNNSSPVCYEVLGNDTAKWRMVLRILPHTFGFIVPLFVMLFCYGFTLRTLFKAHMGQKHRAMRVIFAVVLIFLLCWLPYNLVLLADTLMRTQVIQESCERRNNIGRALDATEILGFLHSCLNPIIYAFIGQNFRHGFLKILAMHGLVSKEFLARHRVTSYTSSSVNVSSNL

[28] = target: panel of 320 non-olfactory GPCRs (Homo sapiens, UniProt P21462)
Chain of panel of 320 non-olfactory GPCRs (Homo sapiens, UniProt P21462) (P21462 whole entry): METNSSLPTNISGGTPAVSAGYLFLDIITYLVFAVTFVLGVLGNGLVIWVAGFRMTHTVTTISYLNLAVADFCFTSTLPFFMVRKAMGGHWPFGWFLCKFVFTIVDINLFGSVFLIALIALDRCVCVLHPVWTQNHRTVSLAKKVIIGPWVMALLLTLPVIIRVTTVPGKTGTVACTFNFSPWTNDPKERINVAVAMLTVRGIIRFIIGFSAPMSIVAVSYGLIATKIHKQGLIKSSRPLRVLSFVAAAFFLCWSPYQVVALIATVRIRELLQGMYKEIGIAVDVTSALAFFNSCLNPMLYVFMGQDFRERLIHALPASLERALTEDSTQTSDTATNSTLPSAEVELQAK

[29] = target: panel of 320 non-olfactory GPCRs (Homo sapiens, UniProt Q8NGU9)
Chain of panel of 320 non-olfactory GPCRs (Homo sapiens, UniProt Q8NGU9) (Q8NGU9 whole entry): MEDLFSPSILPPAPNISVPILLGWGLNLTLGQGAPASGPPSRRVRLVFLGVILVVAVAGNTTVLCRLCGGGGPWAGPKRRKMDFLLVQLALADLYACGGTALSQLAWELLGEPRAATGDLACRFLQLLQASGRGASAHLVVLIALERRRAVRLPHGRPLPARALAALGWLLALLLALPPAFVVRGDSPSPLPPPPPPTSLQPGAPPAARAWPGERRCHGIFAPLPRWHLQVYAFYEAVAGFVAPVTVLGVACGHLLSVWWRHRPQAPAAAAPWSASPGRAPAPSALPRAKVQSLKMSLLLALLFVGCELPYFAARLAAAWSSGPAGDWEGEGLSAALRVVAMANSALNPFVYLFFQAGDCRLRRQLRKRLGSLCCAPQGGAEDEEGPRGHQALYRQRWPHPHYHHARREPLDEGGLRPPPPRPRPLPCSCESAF

[30] = target: panel of 320 non-olfactory GPCRs (Homo sapiens, UniProt Q9BXC0)
[31] = target: panel of 320 non-olfactory GPCRs (Homo sapiens, UniProt Q9NS67)
Chain of panel of 320 non-olfactory GPCRs (Homo sapiens, UniProt Q9NS67) (Q9NS67 whole entry): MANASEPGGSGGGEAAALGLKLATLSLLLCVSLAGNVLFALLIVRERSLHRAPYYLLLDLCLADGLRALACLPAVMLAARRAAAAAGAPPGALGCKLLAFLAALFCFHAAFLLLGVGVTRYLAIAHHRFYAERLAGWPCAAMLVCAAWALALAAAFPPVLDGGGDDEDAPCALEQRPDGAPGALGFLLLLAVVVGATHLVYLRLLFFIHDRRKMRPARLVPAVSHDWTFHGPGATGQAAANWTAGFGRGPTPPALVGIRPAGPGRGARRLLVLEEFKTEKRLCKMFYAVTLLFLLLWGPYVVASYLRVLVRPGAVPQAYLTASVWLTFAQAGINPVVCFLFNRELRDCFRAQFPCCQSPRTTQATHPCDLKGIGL

[32] = target: panel of 320 non-olfactory GPCRs (Homo sapiens, UniProt P18089)
[33] = target: panel of 320 non-olfactory GPCRs (Homo sapiens, UniProt Q9HBX9)
[34] = target: panel of 320 non-olfactory GPCRs (Homo sapiens, UniProt Q9Y271)
[35] = target: panel of 320 non-olfactory GPCRs (Homo sapiens, UniProt Q9H1Y3)
[36] = target: panel of 320 non-olfactory GPCRs (Homo sapiens, UniProt P21731)
Note: test concentration or dose not given here.

Question: COC(=O)[C@@](C)(NC(=O)c1cc(C)n(-c2cccc(C(F)(F)F)c2)n1)c1cccs1 [‘1350] was tested. Which “Fold of Basal RLU” value [1] did it give?
Answer: The value was 1 fold and 1.9 fold and 1.2 fold.

Question: And the “Fold of Basal RLU” value [2]?
Answer: The value was 0.9 and 1 and 1.1.

Question: And the “Fold of Basal RLU” value [3]?
Answer: The value was 1.4 and 0.9 and 1.1 and 1.7.

Question: What about the “Fold of Basal RLU” value [4] of the same compound?
Answer: Its value is 0.6 and 0.7 and 0.9 and 0.5.

Question: And the “Fold of Basal RLU” value [5]?
Answer: Its value is 0.4 and 0.5 and 0.8.

Question: What about the “Fold of Basal RLU” value [6] of the same compound?
Answer: Its value is 0.7 and 0.6.

Question: And the “Fold of Basal RLU” value [7]?
Answer: The value was 0.5 and 0.4 and 0.6.

Question: What about the “Fold of Basal RLU” value [8] of the same compound?
Answer: The value was 0.8 and 0.9 and 0.7 and 0.5.

Question: And the “Fold of Basal RLU” value [9]?
Answer: Its value is 0.6 and 0.8 and 1.1.

Question: What about the “Fold of Basal RLU” value [10] of the same compound?
Answer: Its value is 1.8 fold and 1.6 fold and 2.9 fold.

Question: And the “Fold of Basal RLU” value [11]?
Answer: The value was 1.3 and 0.9 and 1.

Question: Which “Fold of Basal RLU” value [12] does the source give for Cc1cc(C(=O)NC(C)(c2ccco2)c2ccco2)nn1-c1cccc(C(F)(F)F)c1 [‘4936] here?
Answer: The value was 0.7 and 0.4 and 0.6.

Question: And the “Fold of Basal RLU” value [13]?
Answer: The value was 1.1 fold and 1.3 fold and 1.6 fold and 1.7 fold.

Question: What about the “Fold of Basal RLU” value [14] of the same compound?
Answer: The value was 1.2 and 1.9 and 1.3.

Question: And the “Fold of Basal RLU” value [15]?
Answer: The value was 0.7 and 0.8 and 0.6.

Question: And the “Fold of Basal RLU” value [16]?
Answer: The value was 1 fold and 1.1 fold and 0.9 fold.

Question: What about the “Fold of Basal RLU” value [17] of the same compound?
Answer: Its value is 1.5 fold and 0.9 fold and 1 fold.

Question: What about the “Fold of Basal RLU” value [18] of the same compound?
Answer: Its value is 0.8 and 1.3.

Question: And the “Fold of Basal RLU” value [19]?
Answer: The value was 0.9 and 0.7 and 0.6.

Question: And the “Fold of Basal RLU” value [20]?
Answer: The value was 0.5 fold and 0.9 fold and 0.6 fold.

Question: And the “Fold of Basal RLU” value [21]?
Answer: Its value is 1.4 fold and 2 fold and 2.5 fold and 2.8 fold.

Question: What about the “Fold of Basal RLU” value [22] of the same compound?
Answer: Its value is 0.7 and 1.4 and 0.9.

Question: And the “Fold of Basal RLU” value [23]?
Answer: Its value is 1 and 0.5 and 0.6.

Question: What about the “Fold of Basal RLU” value [24] of the same compound?
Answer: Its value is 0.6 and 0.8 and 1.1.

Question: What about the “Fold of Basal RLU” value [25] of the same compound?
Answer: Its value is 0.7 fold and 1 fold.

Question: And the “Fold of Basal RLU” value [26]?
Answer: Its value is 0.7 fold and 0.5 fold.

Question: And the “Fold of Basal RLU” value [27]?
Answer: The value was 0.9 fold and 1.4 fold and 1.3 fold.

Question: And the “Fold of Basal RLU” value [28]?
Answer: The value was 1.8 and 2.2 and 1.2 and 1.7.

Question: What about the “Fold of Basal RLU” value [29] of the same compound?
Answer: Its value is 0.7 and 0.6 and 0.5.

Question: And the “Fold of Basal RLU” value [30]?
Answer: Its value is 0.4 and 0.7 and 0.6.

Question: What about the “Fold of Basal RLU” value [31] of the same compound?
Answer: The value was 0.5 and 0.7 and 0.6.

Question: What about the “Fold of Basal RLU” value [32] of the same compound?
Answer: The value was 0.9 and 1.2 and 1.6 and 1.

Question: What about the “Fold of Basal RLU” value [33] of the same compound?
Answer: Its value is 0.9 and 1.1 and 1.7 and 1.3.

Question: And the “Fold of Basal RLU” value [34]?
Answer: Its value is 1.1 and 0.9.

Question: And the “Fold of Basal RLU” value [35]?
Answer: The value was 0.4 and 0.5.

Question: And the “Fold of Basal RLU” value [36]?
Answer: The value was 0.7 and 1.2 and 0.8.
